Test results published in ChEMBL document CHEMBL1122528, “Synthesis and evaluation of furan, thiophene, and azole bis[(carbamoyloxy)methyl] derivatives as potential antineoplastic agents” (J Med Chem, 1984).
Active and inactive are the calls of the source. The rule behind the calls is not given here.

Test system: P388
Test: Compound was tested for antileukemic activity against murine P388 lymphocytic leukemia; Inactive
Type: functional, cell-based
Conditions: Mus musculus

Row | SMILES | Activity
1 | CNC(=O)OCc1cn(-c2ccc(Cl)c(Cl)c2)nc1COC(=O)NC | inactive
2 | CNC(=O)OCc1c(COC(=O)NC)c(C)n(-c2ccccc2)c1C | inactive
3 | CNC(=O)OCc1nnn(-c2ccccc2)c1COC(=O)NC | inactive
4 | CNC(=O)OCc1snc(-c2ccccc2)c1COC(=O)NC | inactive
5 | CNC(=O)OCc1nc(-c2ccccc2)sc1COC(=O)NC | inactive
6 | CNC(=O)OCc1onc(-c2ccccc2)c1COC(=O)NC | inactive
7 | CNC(=O)OCc1c(C)sc(-c2ccccc2)c1COC(=O)NC | inactive
8 | CNC(=O)OCc1c(COC(=O)NC)c(-c2ccc(C)cc2)n(C)c1C | inactive
9 | CNC(=O)OCc1nc(-c2ccccc2)oc1COC(=O)NC | inactive
